Experimental data from ChEMBL document CHEMBL1201862, “PubChem BioAssay data set” (2004).
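Results reflect a 48-hour exposure of cells in 96-well plates to compound at five concentrations. At the GI50, growth is halved.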 The source made the active and inactive calls. Cut-off read from the data, not from the text of the source: active = GI50 up to about 1.1 µM and inactive = higher.

What was measured:
Test in all cases: inhibition of tumour cell growth, NCI panel, 48 h
A498 = system: A498
ACHN = system: ACHN
CAKI-1 = system: CAKI-1
HCC 2998 = system: HCC 2998
HL-60 = system: HL-60
HOP-62 = system: HOP-62
HOP-92 = system: HOP-92
IGROV-1 = system: IGROV-1
KM12 = system: KM12
LOX IMVI = system: LOX IMVI
MDA-MB-231 = system: MDA-MB-231
MDA-MB-435 = system: MDA-MB-435
NCI/ADR-RES = system: NCI/ADR-RES
OVCAR-3 = system: OVCAR-3
OVCAR-8 = system: OVCAR-8
SF-295 = system: SF-295
SK-MEL-28 = system: SK-MEL-28
SK-OV-3 = system: SK-OV-3
SR = system: SR
UO-31 = system: UO-31

Measured: GI50

O=c1[nH]c(=O)n(C2OC(CO)C(O)C(O)C2O)cc1F (stereo not given)
inactive: A498 > 100 µM | ACHN > 100 µM | CAKI-1 > 100 µM | HCC 2998 > 100 µM | HL-60 > 64.4 µM | HOP-62 > 100 µM | HOP-92 > 12.7 µM | IGROV-1 > 100 µM | KM12 > 100 µM | LOX IMVI > 100 µM | MDA-MB-231 > 100 µM | MDA-MB-435 > 100 µM | NCI/ADR-RES > 100 µM | OVCAR-3 > 100 µM | OVCAR-8 > 100 µM | SF-295 > 100 µM | SK-MEL-28 > 100 µM | SK-OV-3 > 100 µM | SR > 100 µM | UO-31 > 100 µM

CC1CCCC(C(O)CC2CC(=O)NC(=O)C2)C1O (stereo not given)
inactive: A498 > 100 µM | ACHN > 100 µM | CAKI-1 > 100 µM | HCC 2998 > 100 µM | HL-60 > 100 µM | HOP-62 > 100 µM | HOP-92 > 100 µM | IGROV-1 > 100 µM | KM12 > 100 µM | LOX IMVI > 100 µM | MDA-MB-231 > 100 µM | MDA-MB-435 > 100 µM | NCI/ADR-RES > 100 µM | OVCAR-3 > 100 µM | OVCAR-8 > 100 µM | SF-295 > 100 µM | SK-MEL-28 > 100 µM | SK-OV-3 > 100 µM | SR > 100 µM | UO-31 > 100 µM

COc1ccc(/N=N/c2ccc3oc(=O)c(C(=O)Nc4ccc(OC)cc4)cc3c2)cc1
inactive: A498 2.77 µM | ACHN 18.2 µM | CAKI-1 25.6 µM | HCC 2998 19.4 µM | HL-60 5.69 µM | HOP-62 13.9 µM | HOP-92 18.4 µM | IGROV-1 16.1 µM | KM12 13.8 µM | LOX IMVI 3.71 µM | MDA-MB-231 23.5 µM | MDA-MB-435 16.7 µM | NCI/ADR-RES 16.2 µM | OVCAR-3 19.2 µM | OVCAR-8 14.3 µM | SF-295 21.3 µM | SK-MEL-28 15.6 µM | SK-OV-3 19.5 µM | SR 12 µM | UO-31 14 µM
